As a reminder, the IC50 is the concentration that inhibits the measured activity by half. Read a low IC50 as higher potency.

Where a name gives a salt, the structure may show the parent alone.

The assay addresses T1, EGFR TMLRCS (Homo sapiens, UniProt P00533, C797S/L858R/T790M).
T1 construct: host or cells: BaF3-TMLRCS (Ba/F3 cells, kept under puromycin selection)
In words: HTRF Phospho EGFR TMLRCS Assay (Cellular). Particulars: BaF3-TMLRCS cell line, 4 hours incubation, Phospho-EGFR HTRF readout. The assay is classed as cell-based. The protocol:
HTRF Phospho EGFR TMLRCS Assay (Cellular)
BaF3-TMLRCS cell line were obtained from Crownbio (San Diego, CA, USA). Cells were maintained at 37° C., 5% CO2 in RPMI ATCC (Gibco 31870)+2 mM Glutamine+0.5 μg/ml Puromycin supplemented with 10% fetal bovine serum (FBS) (Gibco).
Cells are transferred as above to Greiner Bio-One, Nr. 784-08 micro-titerplate at 20000 cells/well in 12.5 μl of growth medium/well after the plates had been pre-filled with 12.5 nl of DMSO solutions of the to be tested compounds (in dose response) or DMSO only. After spinning the plates at 300×g for 30 seconds the cells were incubated for 4 hours at 37 C, 5% CO2, 95% humidity. The cells were lysed by adding to the compound mix 4 μl/well of the supplemented lysis buffer (Cis-bio, Phospho-EGFR HTRF kit, 64EG1PEH), followed by incubation for 30 min at room temperature with shaking (400 rpm). The plates were then frozen and stored overnight at −80 C. On the next day and after thawing the plates, 4 μl of a mixture of anti-Phospho-EGFR Cryptate and of anti-Phospho-EGFR-d2 antibody solutions prepared in the supplied detection buffer was added to each well. The lidded plates were then incubated for 4 h at room temperature before reading the fluorescence emission at 616 and 665 nm using an Envision reader (Perkin Elmer). Data was analyzed in similar fashion as above using the normalized ratio of the 665 to 616 signals multiplied by 10000.
(In general: TR-FRET usually uses a lanthanide donor and a delayed reading to cut background.)
The compound “2-(4,7-Dichloro-6-(4-((3S,4S)-3-fluoro-1-(2-methoxyethyl)piperidin-4-yl)phenyl)-2H-indazol-2-yl)-2-((R)-6-fluoro-6,7-dihydro-5H-pyrrolo[1,2-c]imidazol-1-yl)-N-(thiazol-2-yl)acetamide OR 2-(4,7-dichloro-6-(4-((3R,4R)-3-fluoro-1-(2-methoxyethyl)piperidin-4-yl)phenyl)-2H-indazol-2-yl)-2-((R)-6-fluoro-6,7-dihydro-5H-pyrrolo[1,2-c]imidazol-1-yl)-N-(thiazol-2-yl)acetamide [Example 56]” showed a half-maximal inhibitory concentration (IC50) of 13 nM.
Then `CCN1CC[C@H](c2ccc(-c3cc(Cl)c4cn(C(C(=O)Nc5nccs5)c5ncn6c5C[C@@H](F)C6)nc4c3Cl)cc2)[C@@H](F)C1` (mixture of isomers) [Example 32, 2-(4,7-Dichloro-6-(4-(rac-(3R,4R)-1-ethyl-3-fluoropiperidin-4-yl)phenyl)-2H-indazol-2-yl)-2-((R)-6-fluoro-6,7-dihydro-5H-pyrrolo[1,2-c]imidazol-1-yl)-N-(thiazol-2-yl)acetamide], with 4 nM; and `O=C(Nc1nccs1)C(c1ncn2c1C[C@@H](F)C2)n1cc2c(Cl)cc(-c3ccc(N4CCOCC4)nc3)c(Cl)c2n1` (mixture of isomers) [Example 29, 2-[4,7-Dichloro-6-(6-morpholin-4-ylpyridin-3-yl)indazol-2-yl]-2-[rac-(6R)-6-fluoro-6,7-dihydro-5H-pyrrolo[1,2-c]imidazol-1-yl]-N-(1,3-thiazol-2-yl)acetamide], with 6 nM.
Then `O=C(Nc1nccs1)C(c1ncn2c1C[C@@H](F)C2)n1cc2c(Cl)cc(-c3ccc(C4CCNCC4)cc3)c(Cl)c2n1` (mixture of isomers) [Example 30, 2-[4,7-Dichloro-6-(4-piperidin-4-ylphenyl)indazol-2-yl]-2-[rac-(6R)-6-fluoro-6,7-dihydro-5H-pyrrolo[1,2-c]imidazol-1-yl]-N-(1,3-thiazol-2-yl)acetamide hydrochloride], with 33 nM; and `CCN1CCC(c2ccc(-c3cc(Cl)c4cn(C(C(=O)Nc5nccs5)c5ncn6c5C[C@@H](F)C6)nc4c3Cl)cc2)CC1` (mixture of isomers) [Example 31, 2-[4,7-Dichloro-6-[4-(1-ethylpiperidin-4-yl)phenyl]indazol-2-yl]-2-[rac-(6R)-6-fluoro-6,7-dihydro-5H-pyrrolo[1,2-c]imidazol-1-yl]-N-(1,3-thiazol-2-yl)acetamide], with 10 nM.
With `CN(C)CCOc1ccc(-c2cc(Cl)c3cn(C(C(=O)Nc4nccs4)c4ncn5c4C[C@@H](F)C5)nc3c2Cl)cc1` (mixture of isomers) [Example 34, 2-[4,7-Dichloro-6-[4-[2-(dimethylamino)ethoxy]phenyl]indazol-2-yl]-2-[rac-(6R)-6-fluoro-6,7-dihydro-5H-pyrrolo[1,2-c]imidazol-1-yl]-N-(1,3-thiazol-2-yl)acetamide] the figure was 6 nM; with `N#Cc1cc(-c2cc(Cl)c3cn(C(C(=O)Nc4nccs4)c4ncn5c4C[C@@H](F)C5)nc3c2Cl)ccc1N1CCOCC1` (mixture of isomers) [Example 36, rac-2-(4,7-Dichloro-6-(3-cyano-4-morpholinophenyl)-2H-indazol-2-yl)-2-((R)-6-fluoro-6,7-dihydro-5H-pyrrolo[1,2-c]imidazol-1-yl)-N-(thiazol-2-yl)acetamide], 9 nM; with `CCN1CC[C@@H](c2ccc(-c3cc(Cl)c4cn(C(C(=O)Nc5nccs5)c5ncn6c5C[C@@H](F)C6)nc4c3Cl)cc2)[C@H](F)C1` (mixture of isomers) [Example 38, 2-[4,7-Dichloro-6-[4-[rac-(3S,4S)-1-ethyl-3-fluoro-4-piperidyl]phenyl]indazol-2-yl]-2-[(6R)-6-fluoro-6,7-dihydro-5H-pyrrolo[1,2-c]imidazol-1-yl]-N-thiazol-2-yl-acetamide OR 2-[4,7-Dichloro-6-[4-[rac-(3R,4R)-1-ethyl-3-fluoro-4-piperidyl]phenyl]indazol-2-yl]-2-[(6R)-6-fluoro-6,7-dihydro-5H-pyrrolo[1,2-c]imidazol-1-yl]-N-thiazol-2-yl-acetamide], 10 nM.
For the compound `O=C(Nc1nccs1)C(c1ncn2c1C[C@@H](F)C2)n1cc2c(Cl)cc(-c3ccc(N4CCC(O)CC4)cc3)c(Cl)c2n1` (mixture of isomers) [Example 39, rac-2-(4,7-Dichloro-6-(4-(4-hydroxypiperidin-1-yl)phenyl)-2H-indazol-2-yl)-2-((R)-6-fluoro-6,7-dihydro-5H-pyrrolo[1,2-c]imidazol-1-yl)-N-(thiazol-2-yl)acetamide], the IC50 is 4 nM.
With `CN(C)CCN(C)c1ccc(-c2cc(Cl)c3cn(C(C(=O)Nc4nccs4)c4ncn5c4C[C@@H](F)C5)nc3c2Cl)cc1` (mixture of isomers) [Example 41, rac-2-(4,7-Dichloro-6-(4-((2-(dimethylamino)ethyl)(methyl)amino)phenyl)-2H-indazol-2-yl)-2-((R)-6-fluoro-6,7-dihydro-5H-pyrrolo[1,2-c]imidazol-1-yl)-N-(thiazol-2-yl)acetamide] the figure was 10 nM; with `O=C(Nc1nccs1)C(c1ncn2c1C[C@@H](F)C2)n1cc2c(Cl)cc(-c3ccc(CCCN4CCC(CO)CC4)cc3)c(Cl)c2n1` (mixture of isomers) [Example 47, rac-2-(4,7-Dichloro-6-(4-(3-(4-(hydroxymethyl)piperidin-1-yl)propyl)phenyl)-2H-indazol-2-yl)-2-((R)-6-fluoro-6,7-dihydro-5H-pyrrolo[1,2-c]imidazol-1-yl)-N-(thiazol-2-yl)acetamide], 8 nM; with `CN(C)Cc1ccc(-c2cc(Cl)c3cn(C(C(=O)Nc4nccs4)c4ncn5c4C[C@@H](F)C5)nc3c2Cl)cc1` (mixture of isomers) [Example 48, rac-2-(4,7-Dichloro-6-(4-((dimethylamino)methyl)phenyl)-2H-indazol-2-yl)-2-((R)-6-fluoro-6,7-dihydro-5H-pyrrolo[1,2-c]imidazol-1-yl)-N-(thiazol-2-yl)acetamide], 8 nM.
The compound `CN(C)Cc1ccc(-c2cc(Cl)c3cn(C(C(=O)Nc4nccs4)c4ncn5c4C[C@@H](F)C5)nc3c2Cl)cc1F` (mixture of isomers) [Example 49, rac-2-(4,7-Dichloro-6-(4-((dimethylamino)methyl)-3-fluorophenyl)-2H-indazol-2-yl)-2-((R)-6-fluoro-6,7-dihydro-5H-pyrrolo[1,2-c]imidazol-1-yl)-N-(thiazol-2-yl)acetamide] displayed an IC50 of 8 nM.
With `O=C(Nc1nccs1)C(c1ncn2c1C[C@@H](F)C2)n1cc2c(Cl)cc(-c3ccc(C45CC(CN6CCC(CO)CC6)(C4)C5)cc3)c(Cl)c2n1` (mixture of isomers) [Example 50, rac-2-(4,7-Dichloro-6-(4-(3-((4-(hydroxymethyl)piperidin-1-yl)methyl)bicyclo[1.1.1]pentan-1-yl)phenyl)-2H-indazol-2-yl)-2-((R)-6-fluoro-6,7-dihydro-5H-pyrrolo[1,2-c]imidazol-1-yl)-N-(thiazol-2-yl)acetamide] the figure was 12 nM; with `O=C(Nc1nccs1)C(c1ncn2c1C[C@@H](F)C2)n1cc2c(Cl)cc(-c3ccc(CCN4CCC(CO)CC4)cc3)c(Cl)c2n1` (mixture of isomers) [Example 51, rac-2-(4,7-Dichloro-6-(4-(2-(4-(hydroxymethyl)piperidin-1-yl)ethyl)phenyl)-2H-indazol-2-yl)-2-((R)-6-fluoro-6,7-dihydro-5H-pyrrolo[1,2-c]imidazol-1-yl)-N-(thiazol-2-yl)acetamide], 10 nM.

Source of the values: US12479849B2, “EGFR inhibitors for the treatment of cancer” (Hoffmann-La Roche Inc., priority 2019, dated 2025).
